Assays:
[1] = target: VCB / Brd4BD1 ternary complex (Homo sapiens, UniProt O60885+P40337); experiment: ITC ternary titration, VCB into Brd4BD1:10; format: binding
Source text: (§1) Bromodomain and VCB complex constructs and protein preparation were described in a previous publication.[5] Wild-type version of human proteins VHL (UniProt accession number P40337), ElonginC (Q15369), ElonginB (Q15370), and the bromodomains of Brd2 (P25440), Brd3 (Q15059), and Brd4 (O60885) were used for all protein expression. In brief, the His6-tagged constructs were transformed into E. coli BL21(DE3) and induced with IPTG to produce the desired proteins. […] After cleaving the His-tag by TEV protease, a second Ni affinity column purification was performed to obtain tag-free protein in the flow-through. VCB was then additionally purified by anion exchange using MonoQ (GE Healthcare). For all proteins, purity was further polished by gel filtration chromatography.
(§2) Titrations were performed on an ITC200 microcalorimeter (GE Healthcare) as previously reported.[5] The titrations were in ITC buffer (20 mM Bis-Tris propane, 150 mM NaCl, 1 mM tris(2-carboxyethyl)phosphine (TCEP), pH 7.4), supplemented with either 0.2% or 3% DMSO and consisted of 19 injections of 2 μL of protein solution at a rate of 0.5 μL/s at 120 s time intervals. An initial injection of protein (0.4 μL) was made and discarded during data analysis. All experiments were performed at 25 °C, while stirring at 600 rpm. PROTACs were diluted from a 10 mM DMSO stock solution to 20 μM in ITC buffer with the final concentration of DMSO to be 0.2% for triazolodiazepine-based PROTAC or 3% for tetrahydroquinoline-based PROTAC. Bromodomain protein in the same buffer was titrated into the PROTAC in the cell. At the end of the titration, the excess of solution was removed from the cell, the syringe was washed and dried, and VCB complex (168 μM, in the same buffer) was loaded in the syringe and titrated into the complex of PROTAC–bromodomain. The concentration of the complex in the cell (C) after the first titration (16.8 μM) was calculated as follows: [drawing 1] where C0 is the initial concentration of the PROTAC in the cell (20 μM), Vcell is the volume of the sample cell (200.12 μL), and Vinj is the volume of titrant injected during the first titration (38.4 μL). Titrations for the binary complex PROTAC–VCB were performed in the same manner with VCB titrated into 16.8 μM PROTAC in the cell. […] The data were fitted to a single-binding-site model to obtain the stoichiometry n, the dissociation constant Kd, and the enthalpy of binding ΔH using the Microcal LLC ITC200 Origin software provided by the manufacturer.
(§3) Table S1. ITC results for the formation of binary and ternary complexes between 10, BET Bromodomain and VCB
(§4) Protein in Species in cell Kd (nM) ΔG (kcal × ΔH (kcal × -TΔS (kcal N α ΔpKd
(§5) Syringe mol-1) mol-1) × mol-1)
(§6) Titrations were performed at 25°C in duplicate except for VCB into 10, which was performed in quadruplicate.
(§7) Values reported are the mean ± s.e.m.

[2] = tested on: BET proteins Brd2, Brd3, Brd4; experiment: BET degradation profile in HeLa cells; format: cell-based
[3] = target: VCB / Brd4^BD2 ternary complex (Homo sapiens, UniProt O60885+P40337); experiment: ITC ternary titration, VCB into Brd4^BD2–PROTAC complex; format: binding
[4] = target: VHL-EloC-EloB protein (VCB) (Homo sapiens, UniProt P40337); experiment: ITC binary titration, VCB into PROTAC; format: binding; details: VCB in syringe, PROTAC in cell
[5] = target: VCB / Brd3BD2 ternary complex (Homo sapiens, UniProt P40337+Q15059); experiment: ITC ternary titration, VCB into Brd3BD2:10; format: binding
Source text: as §1, §2, §3, §4, §5, §6, §7

Brd4^BD2 = Brd4^BD2 (Homo sapiens, UniProt O60885); experiment: ITC binary titration, Brd4^BD2 into PROTAC; format: binding; details: Brd4^BD2 in syringe, PROTAC in cell
Brd4BD1 = Brd4BD1 (Homo sapiens, UniProt O60885); experiment: ITC binary titration, Brd4BD1 into 10; format: binding; details: Brd4BD1 in syringe
Source text: as §1, §2, §3, §4, §5, §6, §7

Brd3BD2 = Brd3BD2 (Homo sapiens, UniProt Q15059); experiment: ITC binary titration, Brd3BD2 into 10; format: binding; details: Brd3BD2 in syringe
Source text: as §1, §2, §3, §4, §5, §6, §7

[6] = target: VCB / Brd3BD1 ternary complex (Homo sapiens, UniProt P40337+Q15059); experiment: ITC ternary titration, VCB into Brd3BD1:10; format: binding
Source text: as §1, §2, §3, §4, §5, §6, §7

Brd2BD2 = Brd2BD2 (Homo sapiens, UniProt P25440); experiment: ITC binary titration, Brd2BD2 into 10; format: binding; details: Brd2BD2 in syringe
Source text: as §1, §2, §3, §4, §5, §6, §7

Brd3BD1 = Brd3BD1 (Homo sapiens, UniProt Q15059); experiment: ITC binary titration, Brd3BD1 into 10; format: binding; details: Brd3BD1 in syringe
Source text: as §1, §2, §3, §4, §5, §6, §7

[7] = target: VCB / Brd2BD1 ternary complex (Homo sapiens, UniProt P25440+P40337); experiment: ITC ternary titration, VCB into Brd2BD1:10; format: binding
Source text: as §1, §2, §3, §4, §5, §6, §7

[8] = target: VCB / Brd2BD2 ternary complex (Homo sapiens, UniProt P25440+P40337); experiment: ITC ternary titration, VCB into Brd2BD2:10; format: binding
Source text: as §1, §2, §3, §4, §5, §6, §7

Brd2BD1 = Brd2BD1 (Homo sapiens, UniProt P25440); experiment: ITC binary titration, Brd2BD1 into 10; format: binding; details: Brd2BD1 in syringe
Source text: as §1, §2, §3, §4, §5, §6, §7

Chain of Brd2BD1 (P25440 74-180 limits assumed): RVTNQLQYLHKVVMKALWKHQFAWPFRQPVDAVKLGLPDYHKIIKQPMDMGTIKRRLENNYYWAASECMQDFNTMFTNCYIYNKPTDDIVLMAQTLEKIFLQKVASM
Chain of Brd3BD1 (Q15059 34-140 limits assumed): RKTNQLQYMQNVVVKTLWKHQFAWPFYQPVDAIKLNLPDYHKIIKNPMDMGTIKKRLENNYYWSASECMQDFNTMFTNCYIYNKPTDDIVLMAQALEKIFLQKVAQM
Chain of Brd3BD2 (Q15059 306-415 limits assumed): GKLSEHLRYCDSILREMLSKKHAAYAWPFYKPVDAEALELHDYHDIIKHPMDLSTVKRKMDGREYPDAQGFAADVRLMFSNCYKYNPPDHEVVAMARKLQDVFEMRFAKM
Chain of Brd2BD2 (P25440 344-453 limits assumed): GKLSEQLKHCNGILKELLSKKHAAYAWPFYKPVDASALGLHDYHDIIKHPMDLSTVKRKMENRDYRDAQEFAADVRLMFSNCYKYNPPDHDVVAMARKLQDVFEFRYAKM

CC(=O)N1c2ccc(-c3ccc(C(=O)NCCOCCOCCOCCOCC(=O)N[C@H](C(=O)N4C[C@H](O)C[C@H]4C(=O)NCc4ccc(-c5scnc5C)cc4)C(C)(C)C)cc3)cc2[C@H](Nc2ccc(Cl)cc2)C[C@@H]1C [compound 10, (2S,4R)-1-((S)-1-(4-((2S,4R)-1-Acetyl-4-((4-chlorophenyl)amino)-2-methyl-1,2,3,4-tetrahydroquinolin-6-yl)phenyl)-18-(tert-butyl)-1,16-dioxo-5,8,11,14-tetraoxa-2,17-diazanonadecan-19-oyl)-4-hydroxy-N-(4-(4-methylthiazol-5-yl)benzyl)pyrrolidine-2-carboxamide]
α ([1]; cooperativity, Brd4BD1): 0.5 | ΔpKd ([1]; ternary vs binary, Brd4BD1): 0.29 ±0.14 | Kd ([1]; ternary, VCB in syringe, Brd4BD1:10 in cell, 25°C): 221 ± 65 nM | -TΔS ([1]; ternary, VCB into Brd4BD1:10): -6.63 ± 0.09 kcal/mol | N ([1]; ternary, VCB into Brd4BD1:10): 0.70 ±0.07 | ΔG ([1]; ternary, VCB into Brd4BD1:10): -9.11 ± 0.18 kcal/mol | ΔH ([1]; ternary, VCB into Brd4BD1:10): -2.47 ± 0.09 kcal/mol | window of concentration for selective degradation of BRD3/4 [2]: 30 to 100 nM | concentration with increased levels of BET proteins (hook effect) ([2]; 24 h): 1 to 10 µM | intra-BET degradation selectivity ([2]; 24 h): depletion selectivity for Brd4 and Brd3 over Brd2 | α ([3]; cooperativity, ratio between binary and ternary Kd, Brd4^BD2): 0.6 | cooperativity (α) Brd4–BD2 ([3]; ternary complex formation with VCB and Brd4^BD2, as tabulated in Table 2): 0.59 | ΔpKd ± uncertainty ([3]; ternary vs binary, Brd4^BD2): –0.22 ± 0.08 | stoichiometry N ([3]; ternary, VCB in syringe, Brd4^BD2–PROTAC in cell): 0.87 ± 0.02 | stoichiometry N [4]: 0.92 ± 0.15 | α ([5]; cooperativity, Brd3BD2): 0.3 | ΔpKd ([5]; ternary vs binary, Brd3BD2): 0.58 ±0.14 | Kd ([5]; ternary, VCB in syringe, Brd3BD2:10 in cell, 25°C): 434 ± 128 nM | -TΔS ([5]; ternary, VCB into Brd3BD2:10): -1.37 ± 0.54 kcal/mol | N ([5]; ternary, VCB into Brd3BD2:10): 1.03 ±0.15 | ΔG ([5]; ternary, VCB into Brd3BD2:10): -8.71 ± 0.18 kcal/mol | ΔH ([5]; ternary, VCB into Brd3BD2:10): -7.33 ± 0.36 kcal/mol | stoichiometry N (Brd4^BD2): 0.86 ± 0.06 | -TΔS (Brd4BD1): 1.6 ± 0.7 kcal/mol | N (Brd4BD1): 0.73 ±0.02 | ΔG (Brd4BD1): -10.3 ± 0.4 kcal/mol | ΔH (Brd4BD1): -11.9 ± 0.3 kcal/mol | Kd (Brd4BD1; 10 in cell, 25°C): 39 ± 24 nM | -TΔS (Brd3BD2): 3.0 ± 0.1 kcal/mol | N (Brd3BD2): 1.02 ±0.09 | ΔG (Brd3BD2): -10.9 ± 0.3 kcal/mol | ΔH (Brd3BD2): -13.9 ± 0.4 kcal/mol | Kd (Brd3BD2; 10 in cell, 25°C): 11 ± 5 nM | α ([6]; cooperativity, Brd3BD1): 0.7 | ΔpKd ([6]; ternary vs binary, Brd3BD1): 0.14 ±0.09 | Kd ([6]; ternary, VCB in syringe, Brd3BD1:10 in cell, 25°C): 152 ± 30 nM | -TΔS ([6]; ternary, VCB into Brd3BD1:10): -5.18 ± 0.14 kcal/mol | N ([6]; ternary, VCB into Brd3BD1:10): 1.03 ±0.18 | ΔG ([6]; ternary, VCB into Brd3BD1:10): -9.31 ± 0.12 kcal/mol | ΔH ([6]; ternary, VCB into Brd3BD1:10): -4.13 ± 0.02 kcal/mol | -TΔS (Brd2BD2): -1.19 ± 0.07 kcal/mol | N (Brd2BD2): 0.84 ±0.05 | ΔG (Brd2BD2): -11.3 ± 0.01 kcal/mol | ΔH (Brd2BD2): -10.1 ± 0.1 kcal/mol | Kd (Brd2BD2; 10 in cell, 25°C): 5 ± 0.1 nM | -TΔS (Brd3BD1): 3.2 ± 0.2 kcal/mol | N (Brd3BD1): 0.98 ±0.04 | ΔG (Brd3BD1): -10.1 ± 0.1 kcal/mol | ΔH (Brd3BD1): -13.3 ± 0.4 kcal/mol | Kd (Brd3BD1; 10 in cell, 25°C): 39 ± 8 nM | α ([7]; cooperativity, Brd2BD1): 0.3 | ΔpKd ([7]; ternary vs binary, Brd2BD1): 0.41 ±0.23 | -TΔS ([7]; ternary, VCB into Brd2BD1:10): -4.19 ± 0.92 kcal/mol | N ([7]; ternary, VCB into Brd2BD1:10): 0.99 ±0.08 | ΔG ([7]; ternary, VCB into Brd2BD1:10): -8.95 ± 0.31 kcal/mol | ΔH ([7]; ternary, VCB into Brd2BD1:10): -4.76 ± 0.62 kcal/mol | α ([8]; cooperativity, Brd2BD2): 0.3 | ΔpKd ([8]; ternary vs binary, Brd2BD2): 0.52 ±0.17 | Kd ([8]; ternary, VCB in syringe, Brd2BD2:10 in cell, 25°C): 384 ± 145 nM | -TΔS ([8]; ternary, VCB into Brd2BD2:10): -1.02 ± 0.61 kcal/mol | N ([8]; ternary, VCB into Brd2BD2:10): 0.73 ±0.02 | ΔG ([8]; ternary, VCB into Brd2BD2:10): -8.80 ± 0.23 kcal/mol | ΔH ([8]; ternary, VCB into Brd2BD2:10): -7.77 ± 0.37 kcal/mol | -TΔS (Brd2BD1): 1.86 ± 0.02 kcal/mol | N (Brd2BD1): 1.00 ±0.08 | ΔG (Brd2BD1): -10.0 ± 0.2 kcal/mol | ΔH (Brd2BD1): -11.9 ± 0.2 kcal/mol | Kd (Brd2BD1; 10 in cell, 25°C): 45 ± 13 nM

Source: paper PMC5788402, “Impact of Target Warhead and Linkage Vector on Inducing Protein Degradation: Comparison of Bromodomain and Extra-Terminal (BET) Degraders Derived from Triazolodiazepine (JQ1) and Tetrahydroquinoline (I-BET726) BET Inhibitor Scaffolds” (Journal of Medicinal Chemistry, 2017)
